The text below walks through data of patent US20180193327A1, “PROPHYLACTIC LEUKOTRIENE INHIBITOR AND IMPLANT DISPLACEMENT THERAPY FOR PREVENTION AND TREATMENT OF CAPSULAR CONTRACTURE IN SILICONE BREAST AUGMENTATION” (priority 2017, published 2018).

Data set [1] can be described thus: Voluntary discontinuation of Accolate after capsulectomy and implant replacement. In kind it is in vivo. Particulars: group of 279 patients. How it is done:
(§1) Patients were treated with Accolate 20 mg twice daily, beginning the day after surgery. Patients with a history of hepatitis or liver disease were excluded. Patient compliance with the recommended dosage was encouraged, but patients were advised that they could discontinue the medication at any time that they experienced significant side effects. All patients receiving Accolate therapy underwent liver function studies 4 weeks after the initiation of Accolate therapy. […] Follow-up liver function studies were performed at 2-week intervals, until transaminases normalized. […] Liver function studies were repeated after 3 months of Accolate therapy for patients choosing to continue Accolate for a 6-month course.
A total of 447 consecutive patients were evaluated during the study period. A first group of 168 consecutive patients with encapsulated breast implants were studied and no leukotriene inhibitor therapy was offered postoperatively. This included 55 patients with bilateral capsular contracture. […] A second group of 279 consecutive patients with encapsulated breast implants were studied and treated with Accolate, including 87 patients with bilateral capsular contracture. There were 366 breasts with capsular contracture among patients in this group. […] Twelve patients discontinued the use of Accolate voluntarily based on cost or minor side effects and were excluded from the study.

Data set [2] deals with capsular contracture in patients undergoing capsulectomy and silicone implant replacement. In words: Recurrence of capsular contracture (Baker scale) at one year after capsulectomy and silicone implant replacement. Format: in vivo. How it is done:
The study was performed with patients undergoing primary capsulectomy and silicone implant replacement for grade III and IV capsular contracture according to the methods depicted in FIGS. 3 and 4 of the present disclosure. […] Patients with a history of subglandular breast augmentation or those who underwent concurrent mastopexy revision or replacement with textured silicone breast implants were not included in the study. Enrolled patients underwent surgery with either an inframammary or periareolar incision.
One group of patients underwent capsulectomy and implant replacement without the use of leukotriene inhibitors. Another group of patients agreed to the off-label use of zafirlukast (Accolate; AstraZeneca Pharmaceuticals, Wilmington, Del.) and were treated beginning the day following the capsulectomy and implant replacement procedure. All patients were between the ages of 22 and 60 years of age and consented to the use of Mentor Memory Gel silicone gel breast implants with a smooth surface (Mentor Worldwide, Irvine, Calif.) and the off-label use of triple-antibiotic irrigation containing povidone-iodine (Betadine; Purdue Frederick Co., Norwalk, Conn.). In addition, a detailed informed consent was provided for the off-label use of Accolate. All patients were adequately informed of the risks, potential unknown benefits, cost, and potential side effects of leukotriene therapy with both verbal and written consent. Patients were informed that taking Accolate was voluntary and that they could discontinue this medication at any time for any reason.
Patients undergoing capsulectory and re-augmentation were treated with the incision initially used by the original surgeon, with either an inframmary or periareolar approach. All patients were surgically treated with complete periprosthetic capsulectomy. Patients were also treated with preoperative intravenous antibiotics, either a 1-g dose of cephazolin or 600 mg of clindamycin, selected based on allergy profiles. Before insertion of implants, triple-antibiotic irrigation [50,000 U of bacitracin, 1 g of Ancef (GlaxoSmithKline, Middlesex, United Kingdom), and 80 mg of gentamicin] with the addition of 50 ml of povidone-iodine in 500 ml of normal saline was used.
Hemovac ⅛ inch drains (Medline Industries, Rialto, Calif.) were used on all breasts receiving capsulectomy. All implants were placed with powder-free glove changes and inserted through a skin barrier/nipple shield using Tegaderm (3M, St. Paul, Minn.) dressings. Drains were left in place until drainage from one breast reached 30 ml/24 hrs, or 60 ml/24 hrs if both breasts were treated. The implant displacement therapy protocol was initiated two days after drains were removed.
as §1
All patients were evaluated at frequent follow-up appointments, including early postoperative visits, 1 month, 3 months, 6 months, and 1 year postoperatively. Capsular contracture was evaluated by the Baker scale. Patients with grade III or IV capsular contractures were considered as having clinical capsular contracture. Each patient was considered based on the number of their breasts associated with clinical capsular contracture ranging from none to two breasts. […]

[3] abbreviates: preoperative Grade III (172 breasts).
Setting [4] is: preoperative Grade IV (194 breasts).
Setting [5] is: preoperative Total III/IV (366 breasts).

On to `COc1cc(C(=O)NS(=O)(=O)c2ccccc2C)ccc1Cc1cn(C)c2ccc(NC(=O)OC3CCCC3)cc12` [Accolate, Zafirlukast], for which the “Number of patients who discontinued voluntarily based on cost or minor side effects” value in data set [1] is recorded as “Twelve”. Moreover, in data set [2] (setting [3]), the “Number of breasts with capsular contracture, postoperative Grade III” value (“Number of breasts … postoperative Grade III” for short) amounted to 7; the “Number of breasts with capsular contracture, postoperative Grade IV” value (from here on “Number of breasts … postoperative Grade IV”) is 2; the “Number of breasts with capsular contracture, postoperative Total” value (“Number of breasts … postoperative Total” for short) came out at 9; the “Percent of breasts with capsular contracture, postoperative Grade III” value (from here on “Percent of breasts … postoperative Grade III”) turned out to be 4.1%. Moreover, in data set [2] (setting [3]), the “Percent of breasts with capsular contracture, postoperative Grade IV” value (shortened to “Percent of breasts … postoperative Grade IV”) worked out at 1.2% and the “Percent of breasts with capsular contracture, postoperative Total” value (shortened to “Percent of breasts … postoperative Total”) worked out at 5.3%. Also, in data set [2] (setting [4]), the “Number of breasts … postoperative Grade III” value worked out at 15; the “Number of breasts … postoperative Grade IV” value is on record as 5; the “Number of breasts … postoperative Total” value is 20; the “Percent of breasts … postoperative Grade III” value turned out to be 7.8%. Also, in data set [2] (setting [4]), the “Percent of breasts … postoperative Grade IV” value is given as 2.6% and the “Percent of breasts … postoperative Total” value is 10.3%. For the same compound, in data set [2] (setting [5]), the “Number of breasts … postoperative Grade III” value is 22; the “Number of breasts … postoperative Grade IV” value is recorded as 7; the “Number of breasts … postoperative Total” value came to 29; the “Percent of breasts … postoperative Grade III” value is 6.0%. For the same compound, in data set [2] (setting [5]), the “Percent of breasts … postoperative Grade IV” value was 1.9% and the “Percent of breasts … postoperative Total” value came to 7.9%.
